Patent publication US20140135310A1, “SULPHONAMIDE DERIVATIVES OF ALICYCLIC AMINES FOR THE TREATMENT OF CENTRAL NERVOUS SYSTEM DISEASES” (Adamed Sp. z o.o., priority 2011, published 2014)

Columns and labels:
Format in all cases: cell-based
[1] = molecular target: D2 dopaminergic receptors (Homo sapiens, UniProt P14416); test: Cellular functional assay, D2 dopaminergic receptors; details: D2S (h), HEK-293 cells
In short: (§1)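 Responses expressed as percent of control specific agonist response; EC50 or IC50 from Hill-equation nonlinear fits of mean replicate concentration-response curves. For antagonists, Kb derived by modified Cheng-Prusoff using reference agonist concentration and its EC50.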

[2] = molecular target: D3 dopaminergic receptors (Homo sapiens, UniProt P35462); test: Cellular functional assay, D3 dopaminergic receptors; details: D3 (h), CHO cells
Chain of D3 dopaminergic receptors (P35462 whole entry): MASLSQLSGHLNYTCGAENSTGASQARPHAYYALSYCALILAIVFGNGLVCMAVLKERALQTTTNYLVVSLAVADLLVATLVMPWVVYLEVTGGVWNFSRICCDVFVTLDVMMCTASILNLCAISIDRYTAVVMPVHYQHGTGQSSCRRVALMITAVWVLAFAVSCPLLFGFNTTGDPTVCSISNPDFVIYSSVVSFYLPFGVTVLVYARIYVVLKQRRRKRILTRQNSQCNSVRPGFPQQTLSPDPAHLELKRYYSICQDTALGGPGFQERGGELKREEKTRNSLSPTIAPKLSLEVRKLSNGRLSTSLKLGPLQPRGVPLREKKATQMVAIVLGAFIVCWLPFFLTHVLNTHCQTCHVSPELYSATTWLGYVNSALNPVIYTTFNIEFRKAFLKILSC
In short: as §1

[3] = molecular target: T1, D4 dopaminergic receptors (Homo sapiens, UniProt P21917); test: Cellular functional assay, D4 dopaminergic receptors; details: D4.4 (h), CHO cells
T1 sequence (P21917 1-419): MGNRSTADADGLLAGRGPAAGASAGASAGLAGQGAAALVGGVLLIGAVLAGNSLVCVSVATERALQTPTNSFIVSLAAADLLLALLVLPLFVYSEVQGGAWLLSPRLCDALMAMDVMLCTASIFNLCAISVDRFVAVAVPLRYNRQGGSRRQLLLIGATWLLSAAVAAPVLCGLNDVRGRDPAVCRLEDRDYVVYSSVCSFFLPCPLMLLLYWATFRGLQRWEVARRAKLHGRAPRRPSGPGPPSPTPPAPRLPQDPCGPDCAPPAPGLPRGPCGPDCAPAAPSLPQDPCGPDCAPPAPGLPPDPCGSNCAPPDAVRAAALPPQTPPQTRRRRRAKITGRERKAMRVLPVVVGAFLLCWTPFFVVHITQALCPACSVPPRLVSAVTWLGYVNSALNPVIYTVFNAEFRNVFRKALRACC
Procedure: (§2) The results are expressed as a percent of control specific agonist response ((measured specific response/control specific agonist response)×100) obtained in the presence of the test compounds.
(§3) The EC50 values (concentration producing a half-maximal specific response) and IC50 values (concentration causing a half-maximal inhibition of the control specific agonist response) were determined by non-linear regression analysis of the concentration-response curves generated with mean replicate values using Hill equation curve fitting (Y=D+[(A−D)/(1+(C/C50)nH)], where Y=specific response, D=minimum specific response, A=maximum specific response, C=compound concentration, and C50=EC50 or IC50, and nH=slope factor). This analysis was performed using a software developed at Cerep (Hill software) and validated by comparison with data generated by the commercial software SigmaPlot® 4.0 for Windows® (© 1997 by SPSS Inc.).
(§4) For the antagonists, the apparent dissociation constants (Kb) were calculated using the modified Cheng Prusoff equation (Kb=IC50/(1+(A/EC50A)), where A=concentration of reference agonist in the assay, and EC50A=EC50 value of the reference agonist).

[4] = molecular target: T2, 5-HT1A serotoninergic receptors (Homo sapiens, UniProt P08908); test: Cellular functional assay, 5-HT1A serotoninergic receptors
T2 sequence (P08908 1-422): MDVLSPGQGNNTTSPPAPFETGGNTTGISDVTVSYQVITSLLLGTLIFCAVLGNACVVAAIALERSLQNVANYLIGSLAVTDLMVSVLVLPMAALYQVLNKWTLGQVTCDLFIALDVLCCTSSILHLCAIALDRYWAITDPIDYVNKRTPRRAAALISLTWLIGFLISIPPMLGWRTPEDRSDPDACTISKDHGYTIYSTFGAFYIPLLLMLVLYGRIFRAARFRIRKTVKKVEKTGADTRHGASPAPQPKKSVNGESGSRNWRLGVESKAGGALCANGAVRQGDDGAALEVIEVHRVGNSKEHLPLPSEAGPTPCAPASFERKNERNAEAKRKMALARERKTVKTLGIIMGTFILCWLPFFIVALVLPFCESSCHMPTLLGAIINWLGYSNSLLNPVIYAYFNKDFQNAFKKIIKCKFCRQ
Procedure: as §2, §3, §4

[5] = molecular target: 5-HT2A serotoninergic receptors (Homo sapiens, UniProt P28223); test: Cellular functional assay, 5-HT2A serotoninergic receptors
Chain of 5-HT2A serotoninergic receptors (P28223 whole entry): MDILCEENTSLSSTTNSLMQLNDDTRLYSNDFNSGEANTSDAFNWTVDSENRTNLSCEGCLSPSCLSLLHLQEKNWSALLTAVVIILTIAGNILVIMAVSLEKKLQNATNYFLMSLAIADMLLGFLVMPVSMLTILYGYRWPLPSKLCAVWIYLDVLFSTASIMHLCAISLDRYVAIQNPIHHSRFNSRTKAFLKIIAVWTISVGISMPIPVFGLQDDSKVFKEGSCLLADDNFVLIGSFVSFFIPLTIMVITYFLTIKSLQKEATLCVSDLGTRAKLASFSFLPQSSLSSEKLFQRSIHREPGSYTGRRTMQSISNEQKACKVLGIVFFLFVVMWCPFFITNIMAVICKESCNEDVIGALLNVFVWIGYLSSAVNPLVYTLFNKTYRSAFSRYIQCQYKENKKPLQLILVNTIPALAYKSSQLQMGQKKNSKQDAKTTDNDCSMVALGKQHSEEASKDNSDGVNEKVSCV
In short: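 Response expressed as percent of control specific agonist response; EC50 or IC50 from Hill-equation non-linear regression on mean replicate values. For antagonists, apparent Kb derived by modified Cheng-Prusoff using reference agonist concentration and its EC50.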

[6] = molecular target: 5-HT7 serotoninergic receptors (Homo sapiens, UniProt P34969); test: Cellular functional assay, 5-HT7 serotoninergic receptors
Chain of 5-HT7 serotoninergic receptors (P34969 whole entry): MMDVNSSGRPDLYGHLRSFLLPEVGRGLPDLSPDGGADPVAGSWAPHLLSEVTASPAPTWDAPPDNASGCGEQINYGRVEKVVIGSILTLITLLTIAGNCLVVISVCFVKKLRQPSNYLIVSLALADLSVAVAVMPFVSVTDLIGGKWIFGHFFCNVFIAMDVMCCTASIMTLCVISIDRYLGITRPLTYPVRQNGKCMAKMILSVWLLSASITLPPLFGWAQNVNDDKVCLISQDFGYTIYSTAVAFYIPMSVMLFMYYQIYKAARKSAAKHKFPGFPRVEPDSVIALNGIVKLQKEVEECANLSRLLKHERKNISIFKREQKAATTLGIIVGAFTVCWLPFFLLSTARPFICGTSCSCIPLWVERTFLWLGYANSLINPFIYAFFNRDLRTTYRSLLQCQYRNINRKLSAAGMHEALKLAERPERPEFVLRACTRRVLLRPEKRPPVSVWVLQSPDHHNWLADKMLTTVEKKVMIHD
In short: as §1

[7] = molecular target: T3, 5-HT2C serotoninergic receptors (Homo sapiens, UniProt P28335); test: Cellular functional assay, 5-HT2C serotoninergic receptors
T3 sequence (P28335 33-458): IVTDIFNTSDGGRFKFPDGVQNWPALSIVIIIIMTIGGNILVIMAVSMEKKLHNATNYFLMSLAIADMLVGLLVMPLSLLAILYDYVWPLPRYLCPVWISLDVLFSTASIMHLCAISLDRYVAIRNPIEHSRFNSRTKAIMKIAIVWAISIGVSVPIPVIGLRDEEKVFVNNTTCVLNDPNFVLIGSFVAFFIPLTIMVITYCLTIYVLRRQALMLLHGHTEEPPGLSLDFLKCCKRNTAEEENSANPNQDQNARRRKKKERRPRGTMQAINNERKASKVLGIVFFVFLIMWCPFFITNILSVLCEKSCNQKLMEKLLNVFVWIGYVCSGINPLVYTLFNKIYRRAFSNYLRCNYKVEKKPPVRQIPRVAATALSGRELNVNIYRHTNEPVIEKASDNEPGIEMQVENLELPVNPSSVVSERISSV
Procedure: as §2, §3, §4

[8] = agonist mode, percent of control specific agonist response

Chain of D2 dopaminergic receptors (P14416 whole entry): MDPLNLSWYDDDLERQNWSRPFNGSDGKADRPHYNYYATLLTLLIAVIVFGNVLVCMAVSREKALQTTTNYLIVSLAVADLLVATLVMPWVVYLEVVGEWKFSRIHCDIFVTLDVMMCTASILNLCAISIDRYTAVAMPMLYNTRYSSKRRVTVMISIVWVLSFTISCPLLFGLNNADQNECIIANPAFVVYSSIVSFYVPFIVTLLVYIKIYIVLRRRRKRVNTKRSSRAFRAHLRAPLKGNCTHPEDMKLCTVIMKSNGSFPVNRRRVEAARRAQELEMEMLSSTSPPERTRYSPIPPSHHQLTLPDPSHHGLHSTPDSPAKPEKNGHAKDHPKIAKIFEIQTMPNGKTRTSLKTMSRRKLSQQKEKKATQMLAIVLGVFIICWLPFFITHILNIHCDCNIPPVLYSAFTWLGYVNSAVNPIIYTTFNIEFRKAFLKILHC

In the case of `O=S(=O)(NC1CN(CCOc2cccc3c2OCCO3)C1)c1cccc2ccccc12` [Compound 94, N-[1-[2-(2,3-Dihydro-1,4-benzodioxan-8-yloxy)ethyl]azetidin-3-yl]-naphthalene-1-sulphonamide], the “D2 ag [%]” value ([1]; agonism, percent of control specific agonist response (3 μM dopamine for control)) is reported as 45%, the “D2 antag [%]” value ([1]; antagonism, stimulus dopamine (30 nM)) is reported as 99% and the “D3 ag [%]” value ([2]; agonism, percent of control specific agonist response (0.3 μM dopamine for control)) is reported as 51%. The “D3 antag [%]” value ([2]; antagonism, stimulus dopamine (10 nM)) was 38%, the “D4 ag [%]” value ([3]; agonism, percent of control specific agonist response (300 nM dopamine for control)) was 60% and the “D4 antag [%]” value ([3]; antagonism, stimulus dopamine (100 nM)) was 9%. For the same compound, the “5-HT1A ag [%]” value [4, 8] was 41%, the “5-HT1A antag [%]” value ([4]; antagonist mode) was 90% and the “5-HT2A ag [%]” value [5, 8] was 7%. The “5-HT2A antag [%]” value ([5]; antagonist mode) was 48%, the “5-HT7 ag [%]” value [6, 8] was 19% and the “5-HT7 antag [%]” value ([6]; antagonist mode) was 68%. For the same compound, the “5-HT2C ag [%]” value [7, 8] was 92% and the “5-HT2C antag [%]” value ([7]; antagonist mode) was −57%.
